Data from article PMC9961069 (Metabolites, 2023).
Where two headings read alike, the source gives them in different places.

How the values were obtained:
[1] = test system: T1, thymidine phosphorylase (TP) in MDA-MB-468 cell lysates; experiment: Lysate CETSA for thymidine phosphorylase; assay type: binding, Human; settings: 10 μM, 65 °C, n = 1
T1 construct: MDA-MB-468 lysates were treated with 10 μM each; endogenous in cells; host or cells: MDA-MB-468

purified human DHFR = biological target: T2, purified human DHFR (Homo sapiens, UniProt P00374); experiment: DHFR enzymatic inhibition assay (NADPH absorbance at 340 nm); assay type: biochemical; settings: 137.5 μM DHF, 125 μM NADPH, n = 2
T2 construct: made in house; host or cells: E. coli BL21 (DE3) T1R pRARE2, pNIC-Bsa4 plasmid
T2 sequence (P00374 1-187): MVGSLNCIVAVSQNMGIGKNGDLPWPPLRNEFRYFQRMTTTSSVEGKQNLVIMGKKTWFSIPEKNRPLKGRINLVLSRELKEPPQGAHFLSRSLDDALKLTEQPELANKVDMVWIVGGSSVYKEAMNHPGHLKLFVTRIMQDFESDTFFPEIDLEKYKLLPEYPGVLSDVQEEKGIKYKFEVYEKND
Method: Working stocks of each inhibitor were created so that the final concentration of DMSO in each reaction was 2% in a final reaction volume of 100 μL. […] Reactions were prepared on ice in 384-well plates. […] Consumption of NADPH by measuring absorbance at 340 nm was used to monitor the progress of the reaction. Readings were taken every 5 min for 1 h at 37 °C using a Synergy MX microplate reader (BioTek).
Percent inhibition relative to the no-inhibitor control was determined using Equation (1). (1) % Inhibition=A340Inhibitor−A340DMSO Control/A340No DHFR−A340DMSO Control×100
Percent inhibition data were then fit to the four-parameter logistic model (Equation (2)) in GraphPad Prism 9.4.1 to determine half-maximal inhibitory concentrations (IC50):(2) y=Bottom+Top−Bottom/1+IC50/x^Hill slope where y represents the percent inhibition, x represents the concentration of inhibitor (μM), the bottom and top represent the bottom and top plateaus, and the Hill slope represents the slope factor. Each experiment contained duplicates of each sample, and each experiment was performed 2 times (n = 2). An ordinary one-way ANOVA was used to test for statistical significance between treatments.

MCF-7 cells = experiment: Resazurin viability assay with or without folinic acid, MCF-7; assay type: cell-based, Human; settings: 72 h
Method: (§1) The incorporation and metabolism of resazurin to resorufin was used to monitor cell viability. MDA-MB-468, MCF7, and MDA-MB-231 cells were grown in 96-well plates with a total of 5000 cells per well in a total volume of 180 μL for 24 h, as described above. After 24 h of growth, cells were treated with increasing concentrations of compounds (0.0457–100 μM) for 72 h. A vehicle control was also performed. […] The volume of treatment added to each well was 20 μL. For folinic acid rescue experiments, 5000 cells were treated with 10 μM compound with or without 300 μg/mL folinic acid (Supelco). After 72 h of treatment, resazurin was added to a final concentration of 44 μM, and cells were incubated for an additional 4 h at 37 °C. The fluorescence of resorufin was monitored on a Synergy MX microplate reader (BioTek) using an excitation wavelength of 540 nm and an emission wavelength of 600 nm. Percent viability relative to the DMSO control was determined. Each treatment was performed in triplicate, and each individual experiment was repeated three times (n = 3).

MDA-MB-231 cells = experiment: Resazurin viability assay with or without folinic acid, MDA-MB-231; assay type: cell-based, Human; settings: 72 h
Method: as §1

[2] = test system: MDA-MB468, MDA-MB-231, and MCF-7 breast cancer cell lines; experiment: Dose-response viability in breast cancer cell lines (statements not split by line); assay type: cell-based, Human; settings: 0–100 μM, 72 h
Method: as §1

Row | SMILES | TP stabilization by CETSA [1] | IC50 (purified human DHFR; 200 nM DHFR, read-out: IC50) [nM] | IC50 (purified human DHFR; IC50, 200 nM DHFR) [nM] | Relative Viability (%) – Inhibitor + FA Treatment (MCF-7 cells; MCF-7, 10 μM + 300 μg/mL folinic acid) [%] | Relative Viability (%) – Inhibitor Alone (MCF-7 cells; MCF-7, 10 μM, relative to DMSO) [%] | Relative Viability (%) – Inhibitor + FA Treatment (MDA-MB-231 cells; MDA-MB-231, 10 μM + 300 μg/mL folinic acid) [%] | Rescue of viability impairment by folinic acid (MDA-MB-231 cells; MDA-MB-231, 10 μM ± 300 μg/mL FA) | Relative Viability (%) – Inhibitor Alone (MDA-MB-231 cells; MDA-MB-231, 10 μM, relative to DMSO) [%] | Phenotypic response in viability dose-response [2]
1 | CCc1nc(N)nc(N)c1-c1ccc(Cl)cc1 [Pyr, Pyrimethamine] | no stabilization of TP was detected | – | – | – | – | – | – | – | –
2 | CC1(C)N=C(N)N=C(N)N1c1ccc(CCCCc2ccc(S(=O)(=O)F)cc2)c(Cl)c1 [compound 127159] | – | 750 ± 320 | < 1000 | 99.99 ± 3.2 | 67.68 ± 13.3 | 106.42 ± 15.0 | largest amplitude of rescue | 50.08 ± 8.8 | little effect at low concentrations and cytotoxicity at higher concentrations
